Patent US20120070377A1, “COMPOUNDS AND BIOLOGICAL MATERIALS AND USES THEREOF” (priority 2009, published 2012)
“Also recorded” adds a separate entry of the source. Like-named read-outs stand apart in the source and are kept apart here. Each block holds one molecule with its values, some of them ahead of it.

Experiments:
[1] = Skin photosensitivity in a murine model; assay type: in vivo; details: laser on the skin after 1 hour, monitored over 4 days, scale of 1-4
Experimental: FIG. 24: Skin photosensitivity of Foscan compared to compound II. Photosensitisers were administered at t=0 hrs and a laser shone on the skin after 1 hour. The skin reaction was followed over time and the results were plotted according to the scale shown.
Skin photosensitivity is an important issue to be resolved in PDT. […] In a murine model, Foscan was administered at clinical doses (ref 109) and compared to compound 11 and a photo-immunoconjugate of compound 11. Skin photosensitivity was monitored over 4 days by observation according to a scale of 1-4 (FIG. 24).

[2] = background statement; cited from earlier work
[3] = Photophysical parameters of the photosensitisers; assay type: physicochemical; details: for φΔ, singlet oxygen quantum yield: determined vs. PPa in toluene (0.5), 10% error; for φf, fluorescence quantum yield: determined vs. PPa in toluene (φf = 0.3), 5% error
[4] = system: SKOV3 cells; experiment: Confocal fluorescence microscopy, intracellular localisation with organelle co-stains; assay type: cell-based, human; details: for golgi localisation (co-localisation with Bodipy ceramide): FIG. 20; for mitochondrial localisation (co-localisation with Mito-tracker): FIG. 21; for lysosomal localisation (co-localisation with Lyso-tracker): FIG. 22
Experimental: Imaging took place at the FILM Imperial College London on a LEICA SP5 MP inverted confocal microscope, at 37° C. and under a CO2 supplemented atmosphere. The water objective (63×) was used in all the experiments. Images were processed using the Leica software, Image J and Powerpoint.
Note: in any experiment where a photosensitiser is used on cells, the experiment is done under subdued lighting exposing the cells to as little light as possible and incubating wrapped in foil. Following addition of PS to cells, cells were no longer observed on the microscope.
Cells were plated on a Labt-Tek® 8 Chambered #1.0 Borosilicate Coverglass System. With some cell lines, it is often useful to use an attachment factor (200 μl, 30 mins, 37° C.) to coat the wells first.
Photosensitiser solutions in phenol red free DMEM (10% FBS, 1% P/S, 0.5% DMSO) were prepared fresh and pre-warmed to 37° C. for 15 mins. The cells were washed with media (1×200 μl) before adding the solutions (200 μl per chamber). Unless otherwise stated, the cells were grown over 20 hrs in a humidified atmosphere (37° C., 5% CO2). The cells were washed (2×200 μl) with prewarmed phenol red free DMEM
(§1) Lysotracker® Green DND-26 was diluted according to manufacturers indications (1 mM stock) and further diluted to twice the working concentration in DMEM (10% FBS, 1% P/S). For use for single colour staining, this was diluted with DMEM (10% FBS, 1% P/S) to a final concentration of 1 μM. When it was used for two colour staining with photosensitisers, a 2 μM solution was twice diluted in photosensitiser solution to give a 1 μM final concentration.
The cells were incubated for 15 mins at 4° C. and a further 30 mins at 37° C. before replacing with fresh medium and imaging.
as §1, with “MitoTracker®” for “Lysotracker®”, “Green” for “Green DND-26”
The cells were incubated for 15 mins at 4° C. and a further 1 hr at 37° C. before replacing with fresh medium and imaging.
ER-Tracker™ Green (BODIPY® FL glibenclamide) was diluted according to manufacturer's indications (1 mM stock) and further diluted to twice the working concentration in HBSS buffer (+2% HEPES). For use for single colour staining, this was diluted with HBSS (+2% HEPES) to a final concentration of 3 μM. When it was used for two colour staining with photosensitisers, a 6 μM solution was twice diluted in photosensitiser solution to give a 3 μM final concentration.
The cells were incubated for 15 mins at 4° C. and a further 1 hr at 37° C. before replacing with fresh buffer and imaging.
Bodipy® FL C5-ceramide complexed to BSA was diluted according to manufacturer's indications (0.5 mM stock) and further diluted to twice the working concentration in HBSS buffer (+2 HEPES). For use for single colour staining, this was diluted with HBSS (+2% HEPES) to a final concentration of 5 μM. When it was used for two colour staining with photosensitisers, a 10 μM solution was twice diluted in photosensitiser solution to give a 5 μM final concentration. The cells were incubated for 15 mins at 4° C. and a further 30 mins at 37° C. before washing with cold HBSS/HEPES (3×100 μl) and replacing with either HBSS/HEPES or photosensitiser solution and incubating at 37° C. for a further 30 mins before replacing with fresh buffer and imaging.

[5] = system: KB; experiment: In vitro phototoxicity (MTS cell titre assay after 670 nm laser light), Example 5; assay type: cell-based, human; details: free photosensitisers, 2 hrs incubation, 670 nm laser 0.5 W 10 s, MTS after 48 h
Experimental: (§2) Two different human-derived tumour cell lines: SKOV3 and KB were obtained from the European Collection of Cell Cultures (ECACC) and cultured in Dulbecco's modified Eagle's medium (DMEM) with 10% foetal bovine serum, penicillin and streptomycin antibiotics (1%) and passaged when 70-90% confluent in 75 cm^2 flasks. The cells were maintained at 37° C. in a humidified 5% CO2 atmosphere.
(§3) Cells were trypsinised and seeded at 2×10^3 cells/well for KB and 3×10^3 cells/well for SKOV3 into 96-well plates and incubated over two nights for KB and overnight for SKOV3 at 37° C. and 5% CO2. The cells were then washed once in phenol red free DMEM and appropriately diluted photosensitiser solution or photo-immunoconjugate (in DMEM, 2% DMSO) was added to the appropriate wells under subdued lighting. DMEM or Triton X-100 (1%) were added to control wells. After 2 hrs incubation in the dark at 37° C., 5% CO2, cells were washed three times with PBS and 100 μl of DMEM was added to each well.
(§4) Wells were exposed to light from a High Powered-Devices 670 nm laser used at 0.5 W for 10 s. Controls included wells with photosensitiser added and no exposure to light, or DMEM added and exposure to light as well as Triton X-100 (1%) with or without light exposure. Cells that had no photosensitiser added and no exposure to light were included as overall controls. Cells were incubated in the dark at 37° C., 5% CO2 for 48 h after which time, a cell titre assay was performed according to the manufacturer's instructions. The Promega Cell Titre-96 system was used which involves the conversion by live cells of a tetrazolium compound (MTS) into a formazan dye which is measurable by its absorbance at 490 nm.

[6] = system: SKOV3; experiment: as above; assay type: cell-based, human; details: free photosensitisers, 2 hrs incubation, 670 nm laser 0.5 W 10 s, MTS after 48 h
Experimental: as §2, §3, §4

[7] = Biodistribution and blood clearance of 125I-radiolabelled photosensitisers and PICs in SKOV3 tumour mice; assay type: in vivo, BALB/c nude mice; details: for blood clearance: iv, radiolabelled, 1-24 hr, SKOV3 tumour mice
Experimental: 0.1 mg of photosensitiser was dissolved in 0.5 ml PBS. Radiolabelled Iodine (Na^125I, ICN chemicals) was added to 0.1 ml of PBS in Iodogen-coated tubes (Pierce chemicals) and allowed to activate. The activated iodine-125 was transferred to the photosensitiser and allowed to react for 5-10 minutes at room temperature. The radiolabelled photosensitiser was separated from free iodine on a mini silica gel column eluting with 100% PBS to remove the iodinating agent followed by a gradual switch from 10% MeOH/PBS to 100% MeOH with the radiolabelled photosenstiser eluting with 10% MeOH/chloroform. The radiolabelled solutions of the photosensitiser was allowed to air-dry and re-suspended in PBS containing 2% DMSO.
(§5) Female BALB/c nude mice (aged 6-8 weeks old) were implanted with 10^7 SKOV3 tumour cells mixed in 0.1 ml of ice-cold matrigel subcutaneously and the tumours were allowed to grow for 3-6 weeks as xenografts. Mice were maintained in IVC cages (individually-vented cages) in a clean room. Samples were injected in a volume of 0.1 ml, intravenously via the lateral tail vein and the mice were maintained in low light with full food and water (irradiated). At various time points (1-24 hr), mice were culled by cardiac puncture under terminal anesthesia and blood and tissues collected. All the tissues were counted for radioactivity by gamma counting and weighed.
The results are shown as a percentage of radioactive material injected per gram of tissue.
(§6) The PS (PPa and PPa-PEG) were chemically coupled to C6 scFv, radiolabelled with iodogen as before, but dialysed against 3×5 L of PBS to remove the free iodine and injected into BALB/c nude mice with SKOV3 tumours as above. Tissues were dissected and counted as above.

[8] = Solubility in water or buffer (observations); assay type: physicochemical
[9] = system: SKOV3 tumour; experiment: Tumour uptake and tumour:blood ratio of radiolabelled photosensitisers and PICs; assay type: in vivo, BALB/c nude mice; details: % of the injected dose/g of tumour tissue
Experimental: as §5, §6
The tumours were counted for radioactivity and expressed as % of the injected dose/g of tumour tissue (FIG. 10).
The percentage PS in the tumour was divided by the percentage in the blood (gram for gram) to give a targeting or tumour:blood ratio (the higher the better). This plotted in FIG. 11. A high tumour:blood ratio means that there is more in the tumour compared to the blood (and other tissues). This is a function of tumour uptake and blood clearance (see FIGS. 9 and 10).

[10] = reference value of PPa in toluene; cited from earlier work

- skin photosensitivity [1]: significant skin sensitivity
Molecule: Oc1cccc(-c2c3nc(c(-c4cccc(O)c4)c4ccc([nH]4)c(-c4cccc(O)c4)c4nc(c(-c5cccc(O)c5)c5ccc2[nH]5)CC4)C=C3)c1 [Foscan, reference compound]
- skin photosensitivity (duration) [2]: about 2 weeks

Molecule: CCC1=C(C)c2cc3[nH]c(c(C)c3CC)c(C#CCCCC(=O)O)c3nc(c4c5[nH]c(cc1n2)c(C)c5C(=O)C4)[C@@H](CCC(=O)OCc1cc(OCCOCCOCCOC)c(OCCOCCOCCOC)c(OCCOCCOCCOC)c1)[C@@H]3C [compound 10, Meso 5-Ethynylhexanoic acid pyropheophorbide a-3,4,5-(triethylene glycolmonomethylether) benzyl ester]
- τΔ, singlet oxygen lifetime [3]: 30 μs
- φΔ, singlet oxygen quantum yield [3]: 0.56
- φf, fluorescence quantum yield [3]: 0.26

Molecule: CCC1=C(C)c2cc3[nH]c(c(C)c3CC)c(-c3cc[n+](CCOCCOCCOC)cc3)c3nc(c4c5[nH]c(cc1n2)c(C)c5C(=O)C4)[C@@H](CCC(=O)O)[C@@H]3C [compound 31C, 3-devinyl-20-(4-triethyleneoxidepyridinium) pyropheophorbide-a chloride]
- τΔ, singlet oxygen lifetime [3]: 30 μs
- φΔ, singlet oxygen quantum yield [3]: 0.73
- φf, fluorescence quantum yield [3]: 0.15
- golgi localisation (co-localisation with Bodipy ceramide) [4]: very little yellow staining
- mitochondrial localisation (co-localisation with Mito-tracker) [4]: very little yellow staining
- lysosomal localisation (co-localisation with Lyso-tracker) [4]: significant yellow staining
- ER localisation (co-localisation with ER-tracker) ([4]; FIG. 23): no yellow staining
- intracellular localisation (intrinsic fluorescence) ([4]; no co-stain, FIG. 19): more punctuate staining pattern indicative of endosomal (aqueous compartment) localisation
- IC50 ([5]; Homo sapiens, KB): 24.7 ± 11.7 µM
- IC50 ([6]; Homo sapiens, SK-OV-3): 260 ± 31 µM
- blood clearance [7]: clears more rapidly than the PPa-PEG

- solubility in water [8]: water soluble
Molecule: Manganese(III)-5-ethynyl hexynoic acid pyropheophorbide a-3,4,5-(triethylnene glycol monomethyl ether) benzyl ester [compound 57]

- solubility in water [8]: highly aqueous soluble
Molecule: Meso pyropheophorbide a-3,4,5-(triethylene glycol monmethylether) 3-devinyl-3-carboxybenzyl-3,4,5-(triethylene glycol monomethylether) pyropheophorbide a [compound 38]

- solubility in water [8]: readily soluble in water and methanol
Molecule: N-Bis-[3-(trimethylamino)propyl]-meso 5-Bromopyropheophorbide a amide diiodide [compound 19]

Molecule: Pyropheophorbide-a [PPa, reference compound]
- τΔ, singlet oxygen lifetime [3]: 30 μs
- tumour uptake [9]: high
- golgi localisation (co-localisation with Bodipy ceramide) [4]: significant yellow staining
- mitochondrial localisation (co-localisation with Mito-tracker) [4]: significant yellow staining
- lysosomal localisation (co-localisation with Lyso-tracker) [4]: insignificant yellow staining
- IC50 [5]: 1.2 ± 0.4 µM
- IC50 [6]: 14.5 ± 3.2 µM
- φf, fluorescence quantum yield [10]: 0.3
- φΔ, singlet oxygen quantum yield [10]: 0.5
- level in tissues (biodistribution) ([7]; % of radioactive material injected per gram of tissue, over 24 hour): high levels in all major tissues
- blood clearance [7]: resides in the blood for a long time; also recorded: very slow
